According to US8232407B2, “Nitrogenous heterocyclic compounds with insecticidal activity, and the preparation and use thereof” (East China University of Science and Technology, priority 2008, dated 2012):

What was measured:
Format in all cases: in vivo
[1] = system: Nilaparvata lugens; assay: Insecticidal activities to plant hopper, spraying method
Procedure, shortened: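 Spray test: acetone solutions of 500 down to 0.79 ppm, 2 ml per tumbler holding 10 planthoppers introduced 6 h earlier, triplicate, aqueous acetone as control. Mortality at 24 h calculated from survivors relative to control.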

[2] = system: Aphis craccivoral; assay: Insecticidal activities to aphids, immersion method
Procedure, shortened: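 Immersion assay: compound diluted from 10 g/L DMF stock to 500 ppm in 0.2 mL/L Triton X-100, sprout-feeding wingless adults dipped 5 s. Kept at 23° C, three repeats; 24 h mortality calculated relative to surviving Triton-treated controls.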

[3] = system: Plutella xylostella; assay: Insecticidal activities to diamondback moth, feeding dipped leaves
Procedure, shortened: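 Mortality was scored 24 h after larvae of Plutella xylostella (10 per treatment, 3 repeats) fed on cabbage leaves immersed 3 s in test solution and dried at room temperature. It was computed relative to survivors in a water-treated control.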

[4] = system: Pseudaletia separate Walker; assay: Insecticidal activities to armyworm, leaf dipping and feeding
Procedure, shortened: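 Armyworms (10 per tumbler, 3 replicates) ate fresh maize leaves that had been immersed for 3 seconds in compound solutions of 1.57-500 ppm in acetone, or in aqueous acetone for controls. Kills were scored at 24 h, and mortality was calculated relative to survivors in the control group.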

| SMILES | Nilaparvata lugens Mortality (%) 500 ppm ([1]; in vivo) [%] | Aphis craccivoral Mortality (%) 500 ppm ([2]; in vivo) [%] | Plutella xylostella Mortality (%) 500 ppm ([3]; in vivo) [%] | Pseudaletia separate Walker Mortality (%) 500 ppm ([4]; in vivo) [%] | Nilaparvata lugens Mortality (%) 500 ppm ([1]; 500 ppm, spraying method, counted after 24 hours) [%] | Aphis craccivoral Mortality (%) 500 ppm ([2]; 500 ppm, immersion method) [%] | Plutella xylostella Mortality (%) 500 ppm ([3]; 500 ppm, feeding dipped leaves, counted after 24 hours) [%] | Pseudaletia separate Walker Mortality (%) 500 ppm ([4]; 500 ppm, leaf dipping and feeding, counted after 24 hours) [%] |
| --- | --- | --- | --- | --- | --- | --- | --- | --- |
| O=[N+]([O-])C(=Cc1cc(Br)c(Br)o1)C1=NCCCN1Cc1ccc(Cl)nc1 [Compound 55] | 100 | 98 | 100 | 100 |  |  |  |  |
| C[N+]1=C(C(=Cc2ccc([N+](=O)[O-])s2)[N+](=O)[O-])N(Cc2cnc(Cl)s2)CC1.[Cl-] [Compound 282] | 100 | 100 | 100 | 100 |  |  |  |  |
| O=[N+]([O-])C(=Cc1oc(Cl)cc1Cl)C1=NCCN1CC1CCOC1 (stereo not shown) [Compound 99] | 97 | 87 | 100 | 100 |  |  |  |  |
| CC(=C(C1=NCCN1C(C)c1ccc(Cl)nc1)[N+](=O)[O-])c1ccc(Cl)o1 (racemic) [Compound 136] | 100 | 100 | 100 | 100 |  |  |  |  |
| C[N+]1=C(C(=Cc2ccc(CO)o2)[N+](=O)[O-])N(Cc2ccc(Cl)nc2)CC1.[Cl-] [Compound 258] | 100 | 100 | 100 | 100 |  |  |  |  |
| N#CC(=Cc1cc(Br)cs1)C1=NCCN1Cc1ccc(Cl)nc1 [Compound 148] | 100 | 97 | 100 | 100 |  |  |  |  |
| O=[N+]([O-])C(=Cc1ccc(Br)o1)C1=NCCN1Cc1ccc(Cl)nc1 [Compound 5] | 100 | 100 | 100 | 100 |  |  |  |  |
| O=[N+]([O-])C(=Cc1cc(Cl)c(Cl)o1)C1=NCCN1Cc1ccccc1 [Compound 108] | 95 | 87 | 24 | 24 |  |  |  |  |
| CC(=C(C1=NCCN1Cc1ccc(Cl)nc1)[N+](=O)[O-])c1ccoc1 [Compound 112] | 76 | 56 | 53 | 68 |  |  |  |  |
| CC(=C(C1=NCCN1Cc1ccc(Cl)nc1)[N+](=O)[O-])c1ccsc1 [Compound 116] | 94 | 89 | 64 | 76 |  |  |  |  |
| O=[N+]([O-])C(=Cc1cc(Br)c(Br)o1)C1=NCCN1Cc1ccc(Cl)nc1 [Compound 10] | 100 | 100 | 100 | 100 |  |  |  |  |
| C[N+]1=C(C(=Cc2cc(Cl)c(Cl)o2)[N+](=O)[O-])N(Cc2ccc(Cl)nc2)CC1.[Cl-] [Compound 251] | 100 | 100 | 100 | 100 |  |  |  |  |
| CC(=C(C1=NCCN1Cc1ccc(Cl)nc1)[N+](=O)[O-])c1ccc(C)o1 [Compound 114] | 100 | 92 | 30 | 10 |  |  |  |  |
| O=[N+]([O-])C(=Cc1ccc(Br)s1)C1=NCCN1Cc1cnc(Cl)s1 [Compound 87] | 100 | 100 | 100 | 100 |  |  |  |  |
| C[N+]1=C(C(=Cc2ccc(Br)o2)[N+](=O)[O-])N(Cc2cnc(Cl)s2)CC1.[Cl-] [Compound 279] | 100 | 100 | 100 | 100 |  |  |  |  |
| O=[N+]([O-])C(=Cc1ccc(Br)o1)C1=NCCN1Cc1cnc(Cl)s1 [Compound 72] | 100 | 100 | 100 | 100 |  |  |  |  |
| CC[N+]1=C(C(=Cc2ccc(Cl)s2)[N+](=O)[O-])N(Cc2ccc(Cl)nc2)CC1.[Cl-] [Compound 294] | 100 | 100 | 100 | 100 |  |  |  |  |

| SMILES | Nilaparvata lugens Mortality (%) 500 ppm ([1]; in vivo) [%] | Aphis craccivoral Mortality (%) 500 ppm ([2]; in vivo) [%] | Plutella xylostella Mortality (%) 500 ppm ([3]; in vivo) [%] | Pseudaletia separate Walker Mortality (%) 500 ppm ([4]; in vivo) [%] | Nilaparvata lugens Mortality (%) 500 ppm ([1]; 500 ppm, spraying method, counted after 24 hours) [%] | Aphis craccivoral Mortality (%) 500 ppm ([2]; 500 ppm, immersion method) [%] | Plutella xylostella Mortality (%) 500 ppm ([3]; 500 ppm, feeding dipped leaves, counted after 24 hours) [%] | Pseudaletia separate Walker Mortality (%) 500 ppm ([4]; 500 ppm, leaf dipping and feeding, counted after 24 hours) [%] |
| --- | --- | --- | --- | --- | --- | --- | --- | --- |
| CCc1ccc(C=C(C2=NCCN2Cc2ccc(Cl)nc2)[N+](=O)[O-])s1 [Compound 29] | 100 | 100 | 100 | 100 |  |  |  |  |
| O=[N+]([O-])C(=Cc1cc(Cl)co1)C1=NCCN1Cc1ccc(Cl)nc1 [Compound 6] | 100 | 100 | 100 | 100 |  |  |  |  |
| O=[N+]([O-])C(=Cc1ccc(CO)o1)C1=NCCN1CC1CCOC1 (stereo not shown) [Compound 102] | 89 | 75 | 97 | 89 |  |  |  |  |
| C[N+]1=C(C(=Cc2ccsc2)[N+](=O)[O-])N(Cc2ccc(Cl)nc2)CC1.[Cl-] [Compound 260] | 92 | 90 | 89 | 80 |  |  |  |  |
| O=[N+]([O-])C(=Cc1ccccn1)C1=NCCN1Cc1ccc(Cl)nc1 [Compound 37] | 56 | 34 | 50 | 57 |  |  |  |  |
| C[N+]1=C(C(=Cc2ccc([N+](=O)[O-])s2)[N+](=O)[O-])N(Cc2ccc(Cl)nc2)CC1.[Cl-] [Compound 261] | 100 | 100 | 100 | 100 |  |  |  |  |
| O=[N+]([O-])C(=Cc1ccc(Cl)o1)C1=NCCN1CC1CCOC1 (stereo not shown) [Compound 94] | 77 | 46 | 83 | 77 |  |  |  |  |
| O=[N+]([O-])C(=Cc1ccc(Cl)nc1)C1=NCCN1Cc1ccc(Cl)nc1 [Compound 40] | 44 | 45 | 56 | 67 |  |  |  |  |
| O=[N+]([O-])C(=Cc1ccco1)C1=NCCN1Cc1ccccc1 [Compound 103] | 100 | 86 | 25 | 70 |  |  |  |  |
| O=[N+]([O-])C(=Cc1cc(Br)co1)C1=NCCN1Cc1ccc(Cl)nc1 [Compound 7] |  |  |  |  | 100 | 100 | 100 | 100 |
| O=[N+]([O-])C(=Cc1cc(Cl)co1)C1=NCCCN1Cc1ccc(Cl)nc1 [Compound 51] | 100 | 100 | 100 | 100 |  |  |  |  |
| Cn1cccc1C=C(C1=[N+](C)CCN1Cc1ccc(Cl)nc1)[N+](=O)[O-].[Cl-] [Compound 275] | 100 | 100 | 100 | 100 |  |  |  |  |
| CC[N+]1=C(C(=Cc2ccoc2)[N+](=O)[O-])N(Cc2ccc(Cl)nc2)CC1.[Cl-] [Compound 286] | 100 | 100 | 100 | 100 |  |  |  |  |
| C[N+]1=C(C(=Cc2ccc([N+](=O)[O-])o2)[N+](=O)[O-])N(Cc2cnc(Cl)s2)CC1.[Cl-] [Compound 277] | 100 | 100 | 100 | 100 |  |  |  |  |
| C[N+]1=C(C(=Cc2cccs2)[N+](=O)[O-])N(Cc2ccc(Cl)nc2)CC1.[Cl-] [Compound 259] | 100 | 100 | 100 | 100 |  |  |  |  |
| O=[N+]([O-])C(=Cc1ccc(Cl)s1)C1=NCCN1Cc1ccc(Cl)nc1 [Compound 19] | 100 | 100 | 100 | 100 |  |  |  |  |
| CC(c1ccc(Cl)nc1)N1CCN=C1C(=Cc1ccc([N+](=O)[O-])s1)[N+](=O)[O-] (racemic) [Compound 129] | 100 | 100 | 80 | 100 |  |  |  |  |
